Data reported in patent US20240238423A9, “TETRAHYDROISOQUINOLINE HETEROBIFUNCTIONAL BCL-XL DEGRADERS” (Treeline Biosciences, Inc., priority 2022, published 2024).
Like-named read-outs stand apart in the source and are kept apart here.

Molecular target: T1, Human BCL-XL protein (N-terminal HiBiT tagged BCL-XL in HT1080 cells) (Homo sapiens, UniProt Q07817)
T1 construct: expressed in transfected cells; host or cells: HT-1080 (ATCC CCL-121), stably transduced with lentivirus pLV-UBC-N-HiBiT-BCL-XL-PGK-puro and selected with puromycin
Assay: HiBiT based degradation assay
Format: cell-based
Conditions: HT1080 cells expressing HiBiT-BCL-XL; for Ymin (6 h) / Ymin (24 h): BCL-XL degradation normalized with DMSO control; for DC50: BCL-XL degradation
How it was run: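 HT1080 cells stably transduced by lentivirus with N-terminally HiBiT-tagged human BCL-XL and kept under 1 μg/mL puromycin selection were seeded at three thousand cells per well in 40 μL RPMI 1640 into 384-well plates pre-spotted with compounds across a concentration range. Luminescence was read on a PHERAstar FSX, normalized to DMSO, and fitted with a four-parameter logistic model.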

T1 sequence (Q07817 whole entry): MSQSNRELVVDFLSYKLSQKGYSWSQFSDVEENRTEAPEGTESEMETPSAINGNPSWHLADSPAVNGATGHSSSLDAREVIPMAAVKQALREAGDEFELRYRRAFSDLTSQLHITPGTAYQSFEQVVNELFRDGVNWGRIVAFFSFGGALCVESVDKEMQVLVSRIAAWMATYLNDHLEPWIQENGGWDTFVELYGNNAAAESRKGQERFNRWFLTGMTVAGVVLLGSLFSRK

Q: How did the “Ymin (6 h)” value (6 h) turn out when `Cc1c(Oc2ccccc2CCC(=O)Nc2cccc3c(C4CCC(=O)NC4=O)nn(C)c23)cccc1-c1ccc(N2CCc3cccc(C(=O)Nc4nc5ccccc5s4)c3C2)nc1C(=O)O` (stereo not shown) [Compound 243, 6-(8-(benzo[d]thiazol-2-ylcarbamoyl)-3,4-dihydroisoquinolin-2(1H)-yl)-3-(3-(2-(3-((3-(2,6-dioxopiperidin-3-yl)-1-methyl-1H-indazol-7-yl)amino)-3-oxopropyl)phenoxy)-2-methylphenyl)picolinic acid] was run?
A: Its value is “C (Ymin ≥ 70%)”.

Q: And the “Ymin (24 h)” value (24 h)?
A: The value was “B (50% ≤ Ymin < 70%)”.

Q: And the DC50 (6 h, read-out: EC50 (6 h))?
A: The DC50 was 100 to 1000 nM.

Q: What about the DC50 (24 h, read-out: EC50 (24 h)) of the same compound?
A: The DC50 was < 100 nM.

Q: Which “Ymin (6 h)” value (6 h) does the source give for `Cc1c(Oc2ccc(CCC(=O)N3CCN(c4ccc5c(C6CCC(=O)NC6=O)nn(C)c5c4)CC3)cc2)cccc1-c1ccc(N2CCc3cccc(C(=O)Nc4nc5ccccc5s4)c3C2)nc1C(=O)O` (stereo not shown) [Compound 244, 6-(8-(benzo[d]thiazol-2-ylcarbamoyl)-3,4-dihydroisoquinolin-2(1H)-yl)-3-(3-(4-(3-(4-(3-(2,6-dioxopiperidin-3-yl)-1-methyl-1H-indazol-6-yl)piperazin-1-yl)-3-oxopropyl)phenoxy)-2-methylphenyl)picolinic acid] here?
A: The value was “C (Ymin ≥ 70%)”.

Q: What about the “Ymin (24 h)” value (24 h) of the same compound?
A: The value was “B (50% ≤ Ymin < 70%)”.

Q: And the DC50 (6 h, read-out: EC50 (6 h))?
A: Its DC50 is 1000 to 10000 nM.

Q: And the DC50 (24 h, read-out: EC50 (24 h))?
A: The DC50 was < 100 nM.

Q: How did the “Ymin (24 h)” value (24 h) turn out when `Cc1c(OCCCN2CCN(CC(=O)Nc3ccc4c(C5CCC(=O)NC5=O)nn(C)c4c3)C[C@@H]2C(F)(F)F)cccc1-c1ccc(N2CCc3cccc(C(=O)Nc4nc5ccccc5s4)c3C2)nc1C(=O)O` (stereo partly drawn) [Compound 245a, 6-(8-(benzo[d]thiazol-2-ylcarbamoyl)-3,4-dihydroisoquinolin-2(1H)-yl)-3-(3-(3-((2R)-4-(2-((3-(2,6-dioxopiperidin-3-yl)-1-methyl-1H-indazol-6-yl)amino)-2-oxoethyl)-2-(trifluoromethyl)piperazin-1-yl)propoxy)-2-methylphenyl)picolinic acid] was run?
A: The value was “B (50% ≤ Ymin < 70%)”.

Q: What about the DC50 (24 h, read-out: EC50 (24 h)) of the same compound?
A: The DC50 was < 100 nM.

Q: For `Cc1c(OCCCN2CCN(CC(=O)Nc3ccc4c(C5CCC(=O)NC5=O)nn(C)c4c3)C[C@H]2C(F)(F)F)cccc1-c1ccc(N2CCc3cccc(C(=O)Nc4nc5ccccc5s4)c3C2)nc1C(=O)O` (stereo partly drawn) [Compound 245b, 6-(8-(benzo[d]thiazol-2-ylcarbamoyl)-3,4-dihydroisoquinolin-2(1H)-yl)-3-(3-(3-((2S)-4-(2-((3-(2,6-dioxopiperidin-3-yl)-1-methyl-1H-indazol-6-yl)amino)-2-oxoethyl)-2-(trifluoromethyl)piperazin-1-yl)propoxy)-2-methylphenyl)picolinic acid], which “Ymin (24 h)” value (24 h) is on record?
A: The value was “B (50% ≤ Ymin < 70%)”.

Q: What about the DC50 (24 h, read-out: EC50 (24 h)) of the same compound?
A: Its DC50 is < 100 nM.

Q: Which “Ymin (24 h)” value (24 h) does the source give for `Cc1c(OCCCN2CCN(CC(=O)Nc3cccc4c(C5CCC(=O)NC5=O)nn(C)c34)C[C@@H]2C(F)(F)F)cccc1-c1ccc(N2CCc3cccc(C(=O)Nc4nc5ccccc5s4)c3C2)nc1C(=O)O` (stereo partly drawn) [Compound 246a, 6-(8-(benzo[d]thiazol-2-ylcarbamoyl)-3,4-dihydroisoquinolin-2(1H)-yl)-3-(3-(3-((2R)-4-(2-((3-(2,6-dioxopiperidin-3-yl)-1-methyl-1H-indazol-7-yl)amino)-2-oxoethyl)-2-(trifluoromethyl)piperazin-1-yl)propoxy)-2-methylphenyl)picolinic acid] here?
A: The value was “B (50% ≤ Ymin < 70%)”.

Q: And the DC50 (24 h, read-out: EC50 (24 h))?
A: The DC50 was < 100 nM.

Q: With `Cc1c(OCCCN2CCN(CC(=O)Nc3cccc4c(C5CCC(=O)NC5=O)nn(C)c34)C[C@H]2C(F)(F)F)cccc1-c1ccc(N2CCc3cccc(C(=O)Nc4nc5ccccc5s4)c3C2)nc1C(=O)O` (stereo partly drawn) [Compound 246b, 6-(8-(benzo[d]thiazol-2-ylcarbamoyl)-3,4-dihydroisoquinolin-2(1H)-yl)-3-(3-(3-((2S)-4-(2-((3-(2,6-dioxopiperidin-3-yl)-1-methyl-1H-indazol-7-yl)amino)-2-oxoethyl)-2-(trifluoromethyl)piperazin-1-yl)propoxy)-2-methylphenyl)picolinic acid] as the compound, how does the “Ymin (24 h)” value (24 h) read?
A: The value was “B (50% ≤ Ymin < 70%)”.

Q: And the DC50 (24 h, read-out: EC50 (24 h))?
A: Its DC50 is < 100 nM.

Q: Which “Ymin (24 h)” value (24 h) does the source give for `Cc1c(OCCCC2CCN(CC3CCN(c4ccc5c(C6CCC(=O)NC6=O)nn(C)c5c4)CC3)CC2)cccc1-c1ccc(N2CCc3cccc(C(=O)Nc4nc5ccccc5s4)c3C2)nc1C(=O)O` (stereo not shown) [Compound 247, 6-[8-(1,3-benzothiazol-2-ylcarbamoyl)-3,4-dihydro-1H-isoquinolin-2-yl]-3-[3-[3-[1-[[1-[3-(2,6-dioxo-3-piperidyl)-1-methyl-indazol-6-yl]-4-piperidyl]methyl]-4-piperidyl]propoxy]-2-methyl-phenyl]pyridine-2-carboxylic acid] here?
A: The value was “A (Ymin < 50%)”.

Q: What about the DC50 (24 h, read-out: EC50 (24 h)) of the same compound?
A: Its DC50 is < 100 nM.

Q: For `Cc1c(OCCC2CCN(CCN3CCC(c4ccc5c(C6CCC(=O)NC6=O)nn(C)c5c4)CC3)CC2)cccc1-c1ccc(N2CCc3cccc(C(=O)Nc4nc5ccccc5s4)c3C2)nc1C(=O)O` (stereo not shown) [Compound 248, 6-[8-(1,3-benzothiazol-2-ylcarbamoyl)-3,4-dihydro-1H-isoquinolin-2-yl]-3-[3-[2-[1-[2-[4-[3-(2,6-dioxo-3-piperidyl)-1-methyl-indazol-6-yl]-1-piperidyl]ethyl]-4-piperidyl]ethoxy]-2-methyl-phenyl]pyridine-2-carboxylic acid], which “Ymin (24 h)” value (24 h) is on record?
A: Its value is “A (Ymin < 50%)”.

Q: What about the DC50 (24 h, read-out: EC50 (24 h)) of the same compound?
A: The DC50 was < 100 nM.

Q: With `Cc1c(OCCC2CCN(CCN3CCC(c4cccc5c(C6CCC(=O)NC6=O)nn(C)c45)CC3)CC2)cccc1-c1ccc(N2CCc3cccc(C(=O)Nc4nc5ccccc5s4)c3C2)nc1C(=O)O` (stereo not shown) [Compound 249, 6-[8-(1,3-benzothiazol-2-ylcarbamoyl)-3,4-dihydro-1H-isoquinolin-2-yl]-3-[3-[2-[1-[2-[4-[3-(2,6-dioxo-3-piperidyl)-1-methyl-indazol-7-yl]-1-piperidyl]ethyl]-4-piperidyl]ethoxy]-2-methyl-phenyl] pyridine-2-carboxylic acid] as the compound, how does the “Ymin (24 h)” value (24 h) read?
A: The value was “A (Ymin < 50%)”.

Q: What about the DC50 (24 h, read-out: EC50 (24 h)) of the same compound?
A: Its DC50 is < 100 nM.

Q: For `Cc1cc(O[C@H]2CC[C@H](CCCN3CCN(c4cccc5c(C6CCC(=O)NC6=O)nn(C)c45)CC3)CC2)ccc1-c1ccc(N2CCc3cccc(C(=O)Nc4nc5ccccc5s4)c3C2)nc1C(=O)O` (stereo partly shown) [Compound 250a, 6-(8-(benzo[d]thiazol-2-ylcarbamoyl)-3,4-dihydroisoquinolin-2(1H)-yl)-3-(4-(((1s,4r)-4-(3-(4-(3-(2,6-dioxopiperidin-3-yl)-1-methyl-1H-indazol-7-yl)piperazin-1-yl)propyl)cyclohexyl)oxy)-2-methylphenyl)picolinic acid], which “Ymin (24 h)” value (24 h) is on record?
A: The value was “A (Ymin < 50%)”.

Q: What about the DC50 (24 h, read-out: EC50 (24 h)) of the same compound?
A: Its DC50 is < 100 nM.

Q: Which “Ymin (24 h)” value (24 h) does the source give for `Cc1cc(O[C@H]2CC[C@H](CCC(=O)N3CCN(c4ccc5c(C6CCC(=O)NC6=O)nn(C)c5c4)CC3)CC2)ccc1-c1ccc(N2CCc3cccc(C(=O)Nc4nc5ccccc5s4)c3C2)nc1C(=O)O` (stereo partly shown) [Compound 251a, 6-(8-(benzo[d]thiazol-2-ylcarbamoyl)-3,4-dihydroisoquinolin-2(1H)-yl)-3-(4-(((1r,4r)-4-(3-(4-(3-(2,6-dioxopiperidin-3-yl)-1-methyl-1H-indazol-6-yl)piperazin-1-yl)-3-oxopropyl)cyclohexyl)oxy)-2-methylphenyl)picolinic acid] here?
A: Its value is “A (Ymin < 50%)”.

Q: What about the DC50 (24 h, read-out: EC50 (24 h)) of the same compound?
A: Its DC50 is < 100 nM.

Q: With `Cc1cc(O[C@H]2CC[C@H](CCC(=O)N3CCN(c4cccc5c(C6CCC(=O)NC6=O)nn(C)c45)CC3)CC2)ccc1-c1ccc(N2CCc3cccc(C(=O)Nc4nc5ccccc5s4)c3C2)nc1C(=O)O` (stereo partly shown) [Compound 252a, 6-(8-(benzo[d]thiazol-2-ylcarbamoyl)-3,4-dihydroisoquinolin-2(1H)-yl)-3-(4-(((1r,4r)-4-(3-(4-(3-(2,6-dioxopiperidin-3-yl)-1-methyl-1H-indazol-7-yl)piperazin-1-yl)-3-oxopropyl)cyclohexyl)oxy)-2-methylphenyl)picolinic acid] as the compound, how does the “Ymin (24 h)” value (24 h) read?
A: Its value is “A (Ymin < 50%)”.

Q: And the DC50 (24 h, read-out: EC50 (24 h))?
A: The DC50 was < 100 nM.

Q: Which “Ymin (24 h)” value (24 h) does the source give for `Cc1c(O[C@H]2CC[C@H](CCC(=O)N3CCC(c4cccc5c(C6CCC(=O)NC6=O)nn(C)c45)CC3)CC2)cccc1-c1ccc(N2CCc3cccc(C(=O)Nc4nc5ccccc5s4)c3C2)nc1C(=O)O` (stereo partly shown) [Compound 253a, 6-(8-(benzo[d]thiazol-2-ylcarbamoyl)-3,4-dihydroisoquinolin-2(1H)-yl)-3-(3-(((1r,4r)-4-(3-(4-(3-(2,6-dioxopiperidin-3-yl)-1-methyl-1H-indazol-7-yl)piperidin-1-yl)-3-oxopropyl)cyclohexyl)oxy)-2-methylphenyl)picolinic acid] here?
A: The value was “B (50% ≤ Ymin < 70%)”.

Q: What about the DC50 (24 h, read-out: EC50 (24 h)) of the same compound?
A: Its DC50 is 100 to 1000 nM.

Q: Which results are given for `Cc1cc(O[C@H]2CC[C@H](CCCN3CCN(c4ccc5c(C6CCC(=O)NC6=O)nn(C)c5c4)CC3)CC2)ccc1-c1ccc(N2CCc3cccc(C(=O)Nc4nc5ccccc5s4)c3C2)nc1C(=O)O` (stereo partly shown) [Compound 254a, 6-(8-(benzo[d]thiazol-2-ylcarbamoyl)-3,4-dihydroisoquinolin-2(1H)-yl)-3-(4-(((1s,4r)-4-(3-(4-(3-(2,6-dioxopiperidin-3-yl)-1-methyl-1H-indazol-6-yl)piperazin-1-yl)propyl)cyclohexyl)oxy)-2-methylphenyl)picolinic acid]?
A: Ymin (24 h): A (Ymin < 50%); DC50 (24 h, read-out: EC50 (24 h)): < 100 nM

Q: Which “Ymin (24 h)” value (24 h) does the source give for `Cc1c(OCCCC2CCN(CCN3CCC(c4ccc5c(C6CCC(=O)NC6=O)nn(C)c5c4)CC3)CC2)cccc1-c1ccc(N2CCc3cccc(C(=O)Nc4nc5ccccc5s4)c3C2)nc1C(=O)O` (stereo not shown) [Compound 255, 6-[8-(1,3-benzothiazol-2-ylcarbamoyl)-3,4-dihydro-1H-isoquinolin-2-yl]-3-[3-[3-[1-[2-[4-[3-(2,6-dioxo-3-piperidyl)-1-methyl-indazol-6-yl]-1-piperidyl]ethyl]-4-piperidyl]propoxy]-2-methyl-phenyl]pyridine-2-carboxylic acid] here?
A: The value was “A (Ymin < 50%)”.

Q: And the DC50 (24 h, read-out: EC50 (24 h))?
A: Its DC50 is < 100 nM.
